For one assay, the target named is recombinant human PD-L1 (Homo sapiens (Human), UniProt Q9NZQ7). Put plainly: Differential scanning fluorimetry (DSF) thermal denaturation. The assay is classed as binding. To be noted: 100 μM compound, 1% DMSO. Here is the method: DSF was performed in a C1000 Touch thermal cycler equipped with a CFX96 optical reaction module (Bio Rad). For all fluorescence measurements, samples contained recombinant human PD-L1 (ThermoFisher) at 500 μg/ml in phosphate buffered saline (PBS), pH 7.4, 5% (m/v) Mannitol, 5% (m/v) Trehalose, 0.02% (v/v) Tween® 80, 2.5-fold SYPRO® Orange, 1% (v/v) DMSO (Sigma-Aldrich) and 100 μM of each compound. The PCR plate was sealed with Optical-Quality Sealing Tape (Bio-Rad) and centrifuged at 300 g for 5 minutes. The DSF assay was carried out by increasing the temperature from 20 to 90° C., with a 1 second hold time every 0.2° C. and fluorescence acquisition using the FRET channel, after an initial incubation step of 10 minutes at 20° C. Control experiments in the absence of DMSO and/or compounds were routinely performed in each microplate.
Sequence of recombinant human PD-L1 (Q9NZQ7 19-238): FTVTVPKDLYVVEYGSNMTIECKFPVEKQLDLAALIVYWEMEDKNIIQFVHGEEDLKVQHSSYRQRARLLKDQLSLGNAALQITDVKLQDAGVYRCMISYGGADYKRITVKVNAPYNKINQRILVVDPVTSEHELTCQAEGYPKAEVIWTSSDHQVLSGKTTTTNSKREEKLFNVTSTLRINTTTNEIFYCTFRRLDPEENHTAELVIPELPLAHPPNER
Data were processed using CFX Manager Software V3.0 (Bio-Rad) and the GraphPad Prism 7. Temperature scan curves were fitted to a dose-response sigmoid function (Boltzmann equation) and the melting temperature (Tm values) were obtained from the midpoint of the transition. Normalization of the RFU was also performed to prevent distraction due to different maximum and minimum values upon compounds treatment. The RFU values from different data sets were converted to a common scale 0-1, where 0 represents the fluorescence of the native protein and 1 the fluorescence of the denatured protein. To monitor the binding properties towards each compound, DSF assays were run in the absence and presence of 100 μM compounds using 1% (v/v) DMSO as vehicle control.
To test this hypothesis, the melting temperature (Tm) of the PD-L1 was determined in thermal denaturation assays by differential scanning fluorimetry (DSF) and checked for a shift in the proteins' Tm (ΔTm) in the presence of the PD-L1 inhibitor candidates. The extent of temperature shift is proportional to the compounds' stabilizing effect and thereby used to infer inhibitors' affinity.
Background: Differential scanning fluorimetry follows unfolding on heating by fluorescence.

Assay [1] has as its system MC38 expressing human PD-L1 (MC38-hPD-L1). As to the kind of experiment: MC38-hPD-L1 tumor model in humanized PD-1 mice. Type of assay: in vivo. On the procedure: Male C57BL/6N-Pdcd1tm1^(huPDCD1-ICP11)Geno humanized for PD-1 (6 weeks old) were purchased from genOway and housed in an animal facility.
Male C57BL/6N humanized PD-1 mice were implanted with 1×10^6 MC38 cells expressing humanized PD-L1 (MC38-hPD-L1) subcutaneously in the right flank. Twelve days later, when tumor volumes reached approx. 60 mm^3 (40-110 mm^3) as measured by digital caliper, animals were randomized into the three treatment groups (n=6 per group). Compound 69 was administered via intraperitoneal (i.p.) injection at 10 mg/kg for 10 daily doses between study days 12 and 22. Similarly, vehicle control (5% (v/v) DMSO, 30% (v/v) polyethylene glycol (PEG) 300, 5% (v/v) Tween® 80, and double distilled (dd) H2O) was administered. The αPD-L1 antibody Atezolizumab was administered via i.p. injection at 10 mg/kg thrice weekly between study days 12 and 22. The tumor size and body weight were measured every 3 days. The tumor volume was determined by X^2Y0.5 (X, small diameter; Y, large diameter).
At day 30, the mice were euthanized, and MC38 tumors and spleens were collected. Tumor and spleen single-cell suspensions were obtained by mechanical disruption of the tissues. […] The obtained single-cell suspensions were then stained with fluorochrome-labelled antibodies and analyzed using a Cytek Aurora (Cytek) and FlowJo software (TreeStar). […]

Each structure is given as a SMILES string. “Also recorded” adds a separate entry of the source.

As for `CCCCCN(CCCCC)C(C)C(=O)c1cc(C)c2ccc3cc(C(C)C)ccc3c2c1.Cl` (stereo not drawn) [Compound 69], the “thermal shift / stabilization of PD-L1” value on recombinant human PD-L1 is recorded as “stabilization of PD-L1”. Further, the “tumor volume reduction relative to vehicle control” value in assay [1] (10 mg/kg i.p., 10 daily doses) is 93.6%. Moreover, the “cytotoxic CD8+ tumor-infiltrating lymphocytes” value in assay [1] (tumors isolated at day 30, flow cytometry) is reported as “significant increase; also recorded: significantly outperformed the monoclonal antibody”.
